These results are taken from patent US20070161547A1, “Modulation of survivin expression” (priority 2003, published 2007).

Series [1] concerns human survivin mRNA. In words: IC50 of dsRNA for survivin mRNA, dose response by quantitative RT-PCR ("D"). The class given is cell-based. Particulars: D (dose response, mRNA levels), read-out: IC50.
Series [2] concerns survivin protein. The series is described as follows: IC50 of dsRNA for survivin protein, quantitative Western blot ("W"). It is filed as cell-based, human. The note with it: W (Western blot), HeLa cells. The method, then:
Western blot analysis (immunoblot analysis) is carried out using standard methods. Cells are harvested 16-20 hours after oligonucleotide treatment, washed once with PBS, suspended in Laemmli buffer (100 μl/well), boiled for 5 minutes and loaded on a 16% SDS-PAGE gel. Gels are run for 1.5 hours at 150 V, and transferred to membrane for western blotting. Appropriate primary antibody directed to survivin is used, with a radiolabelled or fluorescently labeled secondary antibody directed against the primary antibody species. Bands are visualized using a PHOSPHORIMAGER™ (Molecular Dynamics, Sunnyvale, Calif.).
For western blot analysis, cells are plated in 10 cm tissue culture dishes (Falcon, #3003) at a density of 7.5×10^5 cells/dish. For RT-PCR analysis, 96-well plates (Corning Incorporated, #3596) are plated with 1×10^4 cells/well. Lipofectin (GIBCO/Invitrogen) transfection reagent is used at a concentration of 3 ul/ml OPTIMEM reduced serum medium (Gibco/Invitrogen)/100 nM siRNA duplex. Lipofectin reagent is incubated with OPTIMEM medium for 30 minutes prior to the addition of siRNA. The desired amount of siRNA is added and mixed. Further 1:1 dilutions are performed in OPTIMEM. Cells are washed twice with 1× phosphate buffered saline and then treated with the siRNA/Lipofectin mixture in OPTIMEM. After a 4 hr incubation period, OPTIMEM medium is replaced with complete growth medium. Cells are harvested after additional 16-20 hrs for Western blot or RT-PCR analysis.
At the end of the incubation period culture medium is removed and cells are washed twice with PBS. Cells are lysed in RIPA buffer (20 mM Tris-HCl, pH 7.4, 5 mM EDTA, 50 mM NaCl, 10 mM Sodium Pyrophosphate, 50 mM Sodium Fluoride, and 1% Nonidet P40) plus Complete™ Mini protease inhibitor tablets (Roche, #1836153) and 1 mM Sodium orthovanadate (Sigma) by directly adding buffer to the plate. Lysates are collected by scrapping, transferred to microfuge tubes and cleared from the cellular debris by centrifugation at 14,000 rpm for 30 minutes at 4° C. Protein concentrations are determined using BCA protein assay yeagents (Pierce). Total cellular protein is subjected to SDS-PAGE and transferred onto Immobilon-P membranes (Millipore, #IPVHO91). Membranes are probed with primary antibodies to survivin (R&D Systems, #AF886) and to β-Actin (Sigma, #A5441). Horseradish peroxidase linked Anti-rabbit Ig, and anti-mouse Ig, antibodies (Pharmacia) are used as secondary antibodies. Antigen-antibody complexes are visualized by incubation of membrane in SuperSigmal West Pico chemiluminescence reagents (Pierce) for 5 minutes followed by capturing of the chemiluminescence using Fluor-S imager (Biorad) equipped with the cool CCD camera. The protein bands of interest for each sample are quantified using Quantity One software (Biorad). The percentage inhibition for each samples are calculated by comparing the survivin/Actin protein ratio for the sample to survivin/Actin protein ratio for the untreated control. The IC50 is derived from the non-linear regression analysis of the percentage inhibition data using GraphPad Prism software (GraphPad Software).
The constructs tested comprise the antisense strand in the 5′-3′ orientation, and the sense strand in the 5′ to 3′ orientation, In Table 15, “D” is dose response (mRNA levels) and “W” is Western blot. All internucleoside linkages are phosphodiester unless otherwise noted by a lowercase “s” indicating a phosphorothioate linkage.
(Immunoblotting shows a protein as a band on a membrane.)

Like-named read-outs stand apart in the source and are kept apart here.

In the case of “339045_339075 (antisense AUCCAUGGCAGCCAGCUGCU; sense AGCAGCUGGCUGCCAUGGAU; siRNA; unmodified RNA)”, the values for the IC50 in series [1] (HeLa cells), in series [1] (U-87 MG cells) and in series [2] were 3.3 nM, 0.68 nM and 5.5 nM, respectively.
Regarding “339048_339078 (antisense AUUUGAAAAUGUUGAUCUCC; sense GGAGAUCAACAUUUUCAAAU; siRNA; unmodified RNA)”, the IC50 – broadly, the midpoint of a concentration-inhibition curve – in series [1] (U-87 MG cells) amounted to 0.34 nM; in series [2] it was 3.97 nM.
For “339060_339090 (antisense AGUUUGUGCUAUUCUGUGAA; sense UUCACAGAAUAGCACAAACU; siRNA; unmodified RNA)”, the IC50 in series [1] (HeLa cells) was found to be 3.38 nM; in series [2], 4.43 nM.
“339056_339086 (antisense UAAGGAACCUGCAGCUCAGA; sense UCUGAGCUGCAGGUUCCUUA; siRNA; unmodified RNA)”: the half-maximal inhibitory concentration (IC50) in series [1] (HeLa cells) was found to be 1.72 nM; in series [1] (U-87 MG cells), 0.51 nM; in series [2], 7.5 nM.
On to “339058_339088 (antisense AACAAAAUAAGAAAGCCAUG; sense CAUGGCUUUCUUAUUUUGUU; siRNA; unmodified RNA)”, for which the IC50 in series [1] (HeLa cells) turned out to be 2.96 nM; in series [2], 7.23 nM.
With “339052_339082 (antisense GCAAAAGGGACACUGCCUUC; sense GAAGGCAGUGUCCCUUUUGC; siRNA; unmodified RNA)”, the IC50 in series [1] (HeLa cells) was 2.41 nM; in series [1] (U-87 MG cells) it was 1.15 nM; in series [2], ≥ 100 nM.
